This note sets out measurements from patent publication US12338243B2, “P2X7 modulators” (JANSSEN PHARMACEUTICA NV, priority 2014, dated 2025).

In general, IC50 refers to the midpoint of a concentration-inhibition curve. Broadly, the Ki is a measure of affinity in units of concentration, obtained from inhibition or displacement. A lower Ki goes with a stronger hold on the target.

The target in test [1] is T1, P2X7 (Homo sapiens, UniProt Q99572).
T1 sequence (Q99572 1-595): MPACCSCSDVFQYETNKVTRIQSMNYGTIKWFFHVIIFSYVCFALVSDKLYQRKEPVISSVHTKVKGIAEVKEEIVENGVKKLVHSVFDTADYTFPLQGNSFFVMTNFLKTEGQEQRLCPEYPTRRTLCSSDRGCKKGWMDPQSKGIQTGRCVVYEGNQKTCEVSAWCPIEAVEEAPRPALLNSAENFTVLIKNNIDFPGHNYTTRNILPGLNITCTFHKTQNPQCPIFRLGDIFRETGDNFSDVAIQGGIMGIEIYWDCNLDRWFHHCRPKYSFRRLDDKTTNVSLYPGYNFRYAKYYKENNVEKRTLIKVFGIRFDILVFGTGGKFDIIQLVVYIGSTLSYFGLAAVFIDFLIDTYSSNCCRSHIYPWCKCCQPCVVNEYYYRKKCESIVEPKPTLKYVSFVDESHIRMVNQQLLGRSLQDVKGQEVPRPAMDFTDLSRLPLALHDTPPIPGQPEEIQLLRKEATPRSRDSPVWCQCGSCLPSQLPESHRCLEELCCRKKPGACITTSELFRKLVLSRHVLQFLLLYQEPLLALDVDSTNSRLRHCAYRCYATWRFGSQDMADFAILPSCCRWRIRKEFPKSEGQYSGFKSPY
As to the kind of experiment: Ca2+ flux (FLIPR) in 1321N1 cells expressing recombinant human P2X7 channel. Also on record: expressed in transfected cells; host or cells: 1321N1 cells. Format: cell-based. The following applies: 250 μM BzATP. The procedure: P2X7 Antagonism in Recombinant Human P2X7 Cells or Recombinant Rat P2X7 Cells: (a) Ca^2+ Flux and (b) Radioligand Binding
(a) Ca^2+ flux: 1321N1 cells expressing the recombinant human or rat P2X7 channel was cultured in HyQ DME/(HyClone/Dulbecco's Modified Eagle Medium) high glucose supplemented with 10% Fetal Bovine Serum (FBS) and appropriate selection marker. Cells were seeded at a density of 25000 cells/well (96-well clear bottom black walled plates) in 100 μl volume/well. On the day of the experiment, cell plates were washed with assay buffer, containing (in mM): 130 NaCl, 2 KCl, 1 CaCl2), 1 MgCl2, 10 HEPES, 5 glucose; pH 7.40 and 300 mOs. After the wash, cells were loaded with the Calcium-4 dye (Molecular Device) and incubated in the dark for 60 minutes. Test compounds were prepared at 250× the test concentration in neat DMSO. Intermediate 96-well compound plates were prepared by transferring 1.2 μL of the compound into 300 μL of assay buffer. A further 3× dilution occurred when transferring 50 μL/well of the compound plate to 100 μL/well in the cell plate. Cells were incubated with test compounds and dye for 30 minutes. […] The fluorescence change was measured 180 seconds after adding the agonist.
(In general: A change in cytosolic calcium serves as a functional read-out for many receptors and channels.)

Test [2] addresses T1, P2X7. As to the kind of experiment: Radioligand binding, human P2X7-1321N1 cell membranes, tritiated A-804598.
Test [3] deals with T2, rat P2X7 (Rattus norvegicus, UniProt Q64663).
T2 sequence (Q64663 1-595): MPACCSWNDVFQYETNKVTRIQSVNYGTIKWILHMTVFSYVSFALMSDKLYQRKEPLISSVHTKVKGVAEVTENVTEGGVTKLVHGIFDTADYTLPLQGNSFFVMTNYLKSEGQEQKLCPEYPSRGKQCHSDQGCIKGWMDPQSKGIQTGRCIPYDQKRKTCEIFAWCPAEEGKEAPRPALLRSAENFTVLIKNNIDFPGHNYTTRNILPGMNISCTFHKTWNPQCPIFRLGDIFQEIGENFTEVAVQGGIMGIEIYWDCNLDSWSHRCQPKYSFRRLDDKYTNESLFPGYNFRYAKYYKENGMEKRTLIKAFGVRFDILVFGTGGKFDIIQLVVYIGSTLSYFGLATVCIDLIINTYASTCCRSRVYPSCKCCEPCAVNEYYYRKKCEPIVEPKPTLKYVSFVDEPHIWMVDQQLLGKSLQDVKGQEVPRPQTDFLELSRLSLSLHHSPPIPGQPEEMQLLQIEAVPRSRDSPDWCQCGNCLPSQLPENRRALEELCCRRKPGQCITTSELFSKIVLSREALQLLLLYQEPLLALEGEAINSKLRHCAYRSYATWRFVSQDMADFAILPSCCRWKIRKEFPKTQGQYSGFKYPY
As to the kind of experiment: Ca2+ flux (FLIPR) in 1321N1 cells expressing recombinant rat P2X7 channel. Conditions: FLIPR (rat) IC50 (μM), 250 μM BzATP.

`O=C(c1cccc(C(F)(F)F)c1Cl)N1CCn2c(-c3ccco3)nnc2C1c1ccccc1` (racemic) [Example 79, (±)-(2-chloro-3-(trifluoromethyl)phenyl)(3-(furan-2-yl)-8-phenyl-5,6-dihydro-[1,2,4]triazolo[4,3-a]pyrazin-7(8H)-yl)methanone]: the IC50 in test [1] amounted to 15.1 nM; in test [3], 0.0071 µM. This compound displayed a Ki in test [2] of 100 nM.

With `CC(O)c1nnc2n1CCN(C(=O)c1cccc(C(F)(F)F)c1Cl)C2c1ccccc1` (racemic) [Example 80, (±)-(2-chloro-3-(trifluoromethyl)phenyl)(3-(1-hydroxyethyl)-8-phenyl-5,6-dihydro-[1,2,4]triazolo[4,3-a]pyrazin-7(8H)-yl)methanone], the IC50 worked out at 56.3 nM in test [1] and 0.395 µM in test [3]. Moreover, the Ki in test [2] worked out at 20 nM.

On to `Cc1nnc2n1CCN(C(=O)c1cccc(C(F)(F)F)c1Cl)C2c1ccccn1` (racemic) [Example 85, (±)-(2-chloro-3-(trifluoromethyl)phenyl)(3-methyl-8-(pyridin-2-yl)-5,6-dihydro-[1,2,4]triazolo[4,3-a]pyrazin-7(8H)-yl)methanone], for which the IC50 in test [1] stood at 30.1 nM; in test [3] it was 1.02 µM. In test [2], this compound showed a Ki of 39.8 nM.

As to `O=C(c1cccc(Cl)c1Cl)N1CCn2c(nnc2C(F)(F)F)C1c1ccccc1` (racemic) [Example 90, (±)-(2,3-dichlorophenyl)(8-phenyl-3-(trifluoromethyl)-5,6-dihydro-[1,2,4]triazolo[4,3-a]pyrazin-7(8H)-yl)methanone], the IC50 was 11.9 nM in test [1] and 0.964 µM in test [3]. The compound also gave a Ki in test [2] of 20 nM.

For `Cc1nnc2n1CCN(C(=O)c1cccc(C(F)(F)F)c1Cl)C2c1ccc(F)cc1` (racemic) [Example 101, (±)-(2-chloro-3-(trifluoromethyl)phenyl)(8-(4-fluorophenyl)-3-methyl-5,6-dihydro-[1,2,4]triazolo[4,3-a]pyrazin-7(8H)-yl)methanone], the IC50 in test [1] came out at 27.8 nM; in test [3], 5.06 µM. This compound showed a Ki in test [2] of 31.6 nM.

As to `O=C(c1cccc(C(F)(F)F)c1Cl)N1CCn2c(nnc2C(F)(F)F)C1c1cccnc1` (racemic) [Example 127, (±)-(2-chloro-3-(trifluoromethyl)phenyl)(8-(pyridin-3-yl)-3-(trifluoromethyl)-5,6-dihydro-[1,2,4]triazolo[4,3-a]pyrazin-7(8H)-yl)methanone], the IC50 stood at 255 nM in test [1] and 28.2 µM in test [3]. In test [2], this compound showed a Ki of 126 nM.

Take `CC1c2nnc(-c3ccccn3)n2CCN1C(=O)c1ccnc(C(F)(F)F)c1Cl` (centres unmarked) [Example 16, (3-chloro-2-(trifluoromethyl)pyridin-4-yl)(8-methyl-3-(pyridin-2-yl)-5,6-dihydro-[1,2,4]triazolo[4,3-a]pyrazin-7(8H)-yl)methanone]: the IC50 was found to be 19.5 nM in test [1] and 0.0177 µM in test [3]. This compound gave a Ki in test [2] of 100 nM.

Turning to `CC1c2nnc(-c3ccc(Cl)cc3)n2CCN1C(=O)c1cccc(C(F)(F)F)c1Cl` (centres unmarked) [Example 37, (2-chloro-3-(trifluoromethyl)phenyl)(3-(4-chlorophenyl)-8-methyl-5,6-dihydro-[1,2,4]triazolo[4,3-a]pyrazin-7(8H)-yl)methanone], the IC50 in test [1] was 172 nM; in test [3] it was 4.59 µM. In test [2], this compound showed a Ki of 251 nM.

On to `Cc1nnc2n1CCN(C(=O)c1cccc(C(F)(F)F)c1Cl)[C@@H]2c1ccccc1` [Example 67, (R)-(2-chloro-3-(trifluoromethyl)phenyl)(3-methyl-8-phenyl-5,6-dihydro-[1,2,4]triazolo[4,3-a]pyrazin-7(8H)-yl)methanone], for which the values for the IC50 in test [1] and in test [3] were 483 nM and 2.05 µM, respectively. This compound registered a Ki in test [2] of 316 nM.

Turning to `O=C(c1cccc(C(F)(F)F)c1Cl)N1CCn2c(-c3ccco3)nnc2[C@@H]1c1ccccc1` [Example 84, (S)-(2-chloro-3-(trifluoromethyl)phenyl)(3-(furan-2-yl)-8-phenyl-5,6-dihydro-[1,2,4]triazolo[4,3-a]pyrazin-7(8H)-yl)methanone], the 50% inhibitory concentration (IC50) turned out to be 2.5 nM in test [1] and 0.0031 µM in test [3]. This compound also registered a Ki in test [2] of 20 nM.

On to `Cc1nnc2n1CCN(C(=O)c1cccc(C(F)(F)F)c1Cl)[C@@H]2c1ccccn1` [Example 91, (R)-(2-chloro-3-(trifluoromethyl)phenyl)(3-methyl-8-(pyridin-2-yl)-5,6-dihydro-[1,2,4]triazolo[4,3-a]pyrazin-7(8H)-yl)methanone], for which the IC50 in test [1] came out at 7.5 nM; in test [3], 2.13 µM. In test [2], this compound returned a Ki of 31.6 nM.

Consider `Cc1nnc2n1CCN(C(=O)c1cccc(Cl)c1Cl)[C@H]2c1ccc(F)cc1` [Example 105, (S)-(2,3-dichlorophenyl)(8-(4-fluorophenyl)-3-methyl-5,6-dihydro-[1,2,4]triazolo[4,3-a]pyrazin-7(8H)-yl)methanone], for which the IC50 in test [1] stood at 98.6 nM; in test [3], 9.95 µM. The compound further displayed a Ki in test [2] of 21.9 nM.

Turning to `O=C(c1cccc(C(F)(F)F)c1Cl)N1CCn2c(C3CC3)nnc2[C@@H]1c1ccc(F)cc1` [Example 107, (S)-(2-chloro-3-(trifluoromethyl)phenyl)(3-cyclopropyl-8-(4-fluorophenyl)-5,6-dihydro-[1,2,4]triazolo[4,3-a]pyrazin-7(8H)-yl)methanone], the IC50 in test [1] amounted to 12.8 nM; in test [3], 0.178 µM. The same compound returned a Ki in test [2] of 10 nM.

For `Cc1nnc2n1CCN(C(=O)c1cccc(Cl)c1Cl)[C@@H]2c1ccccn1` [Example 112, (R)-(2,3-dichlorophenyl)(3-methyl-8-(pyridin-2-yl)-5,6-dihydro-[1,2,4]triazolo[4,3-a]pyrazin-7(8H)-yl)methanone], the values for the IC50 in test [1] and in test [3] were 134 nM and 2.82 µM, respectively. In test [2], this compound had a Ki of 44.7 nM.

Take `Cc1nnc2n1CCN(C(=O)c1cccc(C(F)(F)F)c1Cl)[C@H]2c1ccc(F)cc1` [Example 115, (S)-(2-chloro-3-(trifluoromethyl)phenyl)(8-(4-fluorophenyl)-3-methyl-5,6-dihydro-[1,2,4]triazolo[4,3-a]pyrazin-7(8H)-yl)methanone]: the IC50 in test [1] turned out to be 8 nM; in test [3], 0.623 µM. This compound displayed a Ki in test [2] of 10 nM.

With `Cc1c(C(=O)N2CCn3c(C)nnc3[C@@H]2c2ccc(F)cc2)cccc1C(F)(F)F` [Example 117, (S)-(8-(4-fluorophenyl)-3-methyl-5,6-dihydro-[1,2,4]triazolo[4,3-a]pyrazin-7(8H)-yl)(2-methyl-3-(trifluoromethyl)phenyl)methanone], the IC50 in test [1] was determined as 64 nM; in test [3], 7.03 µM. Further, the affinity in test [2], expressed as Ki, was 20 nM.

With `O=C(c1ccc(F)c(Cl)c1Cl)N1CCn2c(nnc2C(F)(F)F)[C@@H]1c1ccccc1` [Example 125, (S)-(2,3-dichloro-4-fluorophenyl)(8-phenyl-3-(trifluoromethyl)-5,6-dihydro-[1,2,4]triazolo[4,3-a]pyrazin-7(8H)-yl)methanone], the IC50 is 11700 nM in test [1] and > 10 µM in test [3].
